Laboratory results published in US6403633B2, “Heteroaryl amidines, methylamidines and guanidines, and use thereof as protease inhibitors” (3-Dimensional Pharmaceuticals, Inc., priority 1998, dated 2002).
Where a name gives a salt, the structure may show the parent alone. Read-outs that look alike come from different tables or passages of the source.

What was measured:
bovine trypsin = biological target: T1, bovine trypsin (Bos taurus, UniProt P00760); assay: In vitro inhibition of purified enzymes, Ki determination: trypsin; format: biochemical; settings: substrate N-benzoyl-Phe-Val-Arg-p-nitroanilide 13 μM, [Trypsin]=4 nM, pH 7.5, 37° C.
T1 construct: purchased Sigma T8642
T1 sequence (P00760 24-246): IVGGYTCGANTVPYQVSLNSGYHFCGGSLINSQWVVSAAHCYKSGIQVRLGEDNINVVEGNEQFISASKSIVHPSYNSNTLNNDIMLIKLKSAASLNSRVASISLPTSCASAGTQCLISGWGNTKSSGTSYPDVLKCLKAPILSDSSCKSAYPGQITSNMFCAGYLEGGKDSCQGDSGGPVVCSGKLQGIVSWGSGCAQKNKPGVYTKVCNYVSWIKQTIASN
Description: (§1) Reagents: All buffer salts were obtained from Sigma Chemical Company (St. Louis, Mo.), and were of the highest purity available. The enzyme substrates, N-benzoyl-Phe-Val-Arg-p-nitroanilide (Sigma B7632), N-benzoyl-Ile-Glu-Gly-Arg-p-nitroanilide hydrochloride (Sigma B2291), N-p-tosyl-Gly-Pro-Lys-p-nitroanilide (Sigma T6140), N-succinyl-Ala-Ala-Pro-Phe-p-nitroanilide (Sigma S7388) and N-CBZ-Val-Gly-Arg-p-nitroanilide (Sigma C7271) were obtained from Sigma. N-Succinyl-Ala-Ala-Pro-Arg-p-nitroanilide (BACHEM L-1720) and N-succinyl-Ala-Ala-Pro-Val-p-nitroanilide (BACHEM L-1770) were obtained from BACHEM (King of Prussia, Pa).
Human α-thrombin, human factor Xa and human plasmin were obtained from Enzyme Research Laboratories (South Bend, Ind.). […] In general, substrate concentrations are lower than the experimentally determined value for Km. […]
In a typical Ki determination, into each well of a 96 well plate is pipetted 280 μL of substrate solution, 10 μL of test compound solution, and the plate allowed to thermally equilibrate at 37° C. in a Molecular Devices plate reader for >15 minutes. Reactions were initiated by the addition of a 10 μL aliquot of enzyme and the absorbance increase at 405 nm is recorded for 15 minutes. […] The data are fit to a linear regression, and the value of the slope of the line calculated. The inverse of the slope is the experimentally determined Ki value. […]

human kidney urokinase = biological target: T2, human kidney urokinase (Homo sapiens, UniProt P00749); assay: In vitro inhibition of purified enzymes, Ki determination: urokinase (uPA); format: biochemical
T2 construct: purchased Sigma U5004; host or cells: human kidney cells
Description: as §1, with “Sigma.” for “Sigma. N-Succinyl-Ala-Ala-Pro-Arg-p-nitroanilide (BACHEM L-1720) and N-succinyl-Ala-Ala-Pro-Val-p-nitroanilide (BACHEM L-1770) were obtained from BACHEM (King of Prussia, Pa).”
Human α-thrombin, human factor Xa and human plasmin were obtained from Enzyme Research Laboratories (South Bend, Ind.). Bovine α-chymotrypsin (Sigma C4129), bovine trypsin (Sigma T8642) and human kidney cell urokinase (Sigma U5004) were obtained from Sigma. Human leukocyte elastase was obtained from Elastin Products (Pacific, Mo.). Ki Determinations: All assays are based on the ability of the test compound to inhibit the enzyme catalyzed hydrolysis of a peptide p-nitroanilide substrate. […] The final concentrations for each of the substrates is listed below. In general, substrate concentrations are lower than the experimentally determined value for Km. Test compounds are prepared as a 1.0 mg/ml solution in DMSO. Dilutions are prepared in DMSO yielding 8 final concentrations encompassing a 200 fold concentration range. Enzyme solutions are prepared at the concentrations listed below in assay buffer.
Data corresponding to less than 10% of the total substrate hydrolysis were used in the calculations. The ratio of the velocity (rate of change in absorbance as a function of time) for a sample containing no test compound is divided by the velocity of a sample containing test compound, and is plotted as a function of test compound concentration. The data are fit to a linear regression, and the value of the slope of the line calculated. The inverse of the slope is the experimentally determined Ki value. Thrombin: Thrombin activity was assessed as the ability to hydrolyze the substrate N-succinyl-Ala-Ala-Pro-Arg-p-nitroanilide. […] Final DMSO concentration was 4.3%. […] Factor X [FXa]: FXa activity was assessed as the ability to hydrolyze the substrate N-benzoyl-Ile-Glu-Gly-Arg-p-nitroanilide hydrochloride. […] Final DMSO concentration was 4.3%. Purified activated human Factor X was diluted into assay buffer to a concentration of 300 nM. […] Plasmin: Plasmin activity was assessed as the ability to hydrolyze the N-p-Tosyl-Gly-Pro-Lys-p-nitroanilide. […] Final DMSO concentration was 4.3%. […] Chymotrypsin: Chymotrypsin activity was assessed as the ability to hydrolyze N-succinyl-Ala-Ala-Pro-Phe-p-nitroanilide. […] Final DMSO concentration was 4.3%. […] Trypsin: Trypsin activity was assessed as the ability to hydrolyze N-benzoyl-Phe-Val-Arg-p-nitroanilide. […] Final DMSO concentration was 4.3%. […] Elastase: Elastase activity was assessed as the ability to hydrolyze N-succinyl-Ala-Ala-Pro-Val-p-nitroanilide. […] Final DMSO concentration was 4.3%. […] Urokinase: Urokinase activity was assessed as the ability to hydrolyze N-CBZ-Val-Gly-Arg-p-nitroanilide. […] Final DMSO concentration was 4.3%. […] Final reagent concentrations were: [Urokinase]=40 nM, and N-CBZ-Val-Gly-Arg-p-nitroanilide]=[…].

[1] = uPA, substrate N-CBZ-Val-Gly-Arg-p-nitroanilide, [Urokinase]=40 nM, pH 7.5, 37° C., one range stated for the listed compounds, read-out: Ki values for uPA

Row | Ki (human kidney urokinase; [1]) [nM] | Structure (SMILES) | further results
1 | – | COc1cccc(-c2csc(-c3cc(C(=N)N)sc3SC)n2)c1 [Example 8, 4-[4-(3-Methoxyphenyl)(1,3-thiazol-2-yl)]-5-methylthiothiophene-2-carboxamidine hydrochloride] | Ki (bovine trypsin): 858 nM
2 | 16 to 3500 | COc1ccc(OC)c(-c2csc(-c3cc(C(=N)N)sc3SC)n2)c1 [Example 28, 4-[4-(2,5-Dimethoxyphenyl)(1,3-thiazol-2-yl)]-5-methylthiothiophene-2-carboxamidine hydrochloride] | –
3 | 16 to 3500 | CSc1sc(C(=N)N)cc1-c1nc(-c2cccc(OCC(=O)O)c2)cs1 [Example 40, 2-{3-[2-(5-Amidino-2-methylthio-3-thienyl)-1,3-thiazol-4-yl]phenoxy}acetic acid] | –
4 | – | CSc1sc(C(=N)N)cc1-c1nc(-c2cccc(OCC(=O)N3CCOCC3)c2)cs1 [Example 52, 5-Methylthio-4-{4-[3-(2-morpholin-4-yl-2-oxoethox)phenyl](1,3-thiazol-2-yl)}thiophene-2-carboxamidine trifluoroacetate] | Ki (bovine trypsin): 474 nM
5 | 16 to 3500 | CSc1sc(C(=N)N)cc1-c1ncc(-c2ccccc2)o1 [Example 79, 5-Methylthio-4-(5-phenyl(1,3-oxazol-2-yl))thiophene-2-carboxamidine hydrochloride] | –
6 | 16 to 3500 | CSc1sc(C(=N)N)cc1-c1nc(-c2ccccc2)co1 [Example 84, 5-Methylthio-4-(4-phenyl(1,3-oxazol-2-yl))thiophene-2-carboxamidine hydrochloride] | –
7 | 16 to 3500 | CSc1sc(C(=N)N)cc1C(=N)NCc1ccccc1 [Example 89, 4-{Imino[benzylamino]methyl}-5-methylthiothiophene-2-carboxamidine hydrochloride] | –
8 | 16 to 3500 | CSc1sc(C(=N)N)cc1-c1nc(-c2ccccc2)c(-c2ccccc2)s1 [Example 131, 4-(4,5-Diphenyl(1,3-thiazol-2-yl))-5-methylthiothiophene-2-carboxamidine] | –
9 | 16 to 3500 | C[S+]([O-])c1sc(C(=N)N)cc1-c1nc(-c2ccc(Cl)cc2)cs1 (stereo not shown) [Example 138, 4-[4-(4-Chlorophenyl)(1,3-thiazol-2-yl)]-5-(methylsulfinyl)thiophene-2-carboxamidine] | –
10 | 16 to 3500 | COc1sc(C(=N)N)cc1-c1nc(-c2ccccc2)cs1 [Example 139, 5-Methoxy-4-(4-phenyl(1,3-thiazol-2-yl))thiophene-2-carboxamidine] | –
11 | 16 to 3500 | CSc1sc(C(=N)N)cc1-c1nc(-c2cc(C(C)(C)C)nn2Cc2ccccc2)cs1 [Example 143, 4-{4-[3-(tert-Butyl)-1-benzylpyrazol-5-yl](1,3-thiazol-2-yl)}-5-methylthiothiophene-2-carboxamidine] | –
12 | 16 to 3500 | CSc1sc(C(=N)N)cc1Nc1ncccn1 [Example 200, 5-Methylthio-4-(pyrimidin-2-ylamino)thiophene-2-carboxamidine hydrochloride] | –
13 | 16 to 3500 | CSc1sc(C(=N)N)cc1Nc1nc(-c2ccccc2)cs1 [Example 204, 5-Methylthio-4-[(4-phenyl(1,3-thiazol-2-yl))amino]thiophene-2-carboxamidine] | –
14 | 16 to 3500 | CSc1sc(C(=N)N)cc1Nc1ccc2ccccc2c1 [Example 208, 5-Methylthio-4-(2-naphthylamino)thiophene-2-carboxamidine] | –
15 | 16 to 3500 | CSc1sc(C(=N)N)cc1Nc1cccc([N+](=O)[O-])c1 [Example 213, 5-Methylthio-4-[(3-nitrophenyl)amino]thiophene-2-carboxamidine] | –
16 | 16 to 3500 | CSc1sc(C(=N)N)cc1NCc1ccccc1 [Example 220, 5-Methylthio-4-[benzylamino]thiophene-2-carboxamidine] | –
17 | 16 to 3500 | CSc1sc(C(=N)N)cc1NC(=O)/C=C/c1ccccc1 [Example 227, 4-((2E)-3-Phenylprop-2-enoylamino)-5-methylthiothiophene-2-carboxamidine] | –
18 | 16 to 3500 | CSc1sc(C(=N)N)cc1NC(=O)c1ccc(Oc2cc(Cl)cc(Cl)c2)o1 [Example 233] | –
19 | 16 to 3500 | CSc1sc(C(=N)N)cc1NC(=O)c1ccc2ccccc2n1 [Example 235, 5-Methylthio-4-(2-quinolylcarbonylamino)thiophene-2-carboxamidine] | –
20 | 16 to 3500 | CSc1sc(C(=N)N)cc1NC(=O)COc1ccccc1 [Example 239, 5-Methylthio-4-(2-phenoxyacetylamino)thiophene-2-carboxamidine] | –
21 | 16 to 3500 | CSc1sc(C(=N)N)cc1N(S(=O)(=O)c1ccc(Cl)cc1)S(=O)(=O)c1ccc(Cl)cc1 [Example 281, 4-{Bis[(4-chlorophenyl)sulfonyl]amino}-5-methylthiothiophene-2-carboxamidine] | –
22 | – | CSc1sc(C(=N)N)cc1Oc1ccccc1 [Example 288, 5-Methylthio-4-phenoxythiophene-2-carboxamidine trifluoroacetate] | Ki (human kidney urokinase): 16 to 3500 nM
